# Assay results as given in PMC5602100, “Retro analog concept: comparative study on physico-chemical and biological properties of selected antimicrobial peptides” (Amino Acids, 2017).
# Like-named read-outs stand apart in the source and are kept apart here. Ends that are not written are not given here.
# Tests used:
# A. niger ATCC 16404 = system: A. niger ATCC 16404
# Description: (§1) The minimal inhibitory concentrations (MICs) for bacteria and fungi were determined by the broth microdilution method according to the Clinical and Laboratory Standards Institute (CLSI) protocol (Clinical and Laboratory Standards Institute (CLSI) [2002], [2012]). For this purpose, the initial inoculums of bacteria (5 × 10^5 CFU/mL) in Mueller–Hinton Broth (Biocorp, Warsaw, Poland) were exposed to the ranging concentrations of compounds (0.125–256 µg/mL) and incubated for 18 h at 37 °C. In case of fungi, the initial inoculums of 2 × 10^3 CFU/mL in RPMI-1640 (Sigma-Aldrich, Steinheim, Germany) were exposed to the ranging concentrations of compounds (0.5–256 µg/mL) and incubated for 24 h at 37 °C. The experiments were conducted on 96-well microtiter plates, with the final volume of 100 µL. Cell densities were adjusted spectrophotometrically (Multiskan™ GO Microplate Spectrophotometer, Thermo Scientific) at the wavelengths of 600 nm for bacteria and 530 nm for fungi. The MIC was taken as the lowest drug concentration at which a noticeable growth of microorganisms was inhibited. Reference strains of bacteria: Escherichia coli ATCC 25922, E. coli ATCC 23506, Enterococcus faecalis PCM 2673, Klebsiella pneumoniae ATCC 700603, Pseudomonas aeruginosa ATCC 9027, Staphylococcus aureus ATCC 25923, S. aureus 9144, Streptococcus pneumoniae ATCC 49619, and fungi: Aspergillus niger ATCC 16404, Candida albicans ATCC 10231, and C. glabrata ATCC 15126 were obtained from Polish Collection of Microorganisms (PCM, Polish Academy of Sciences, Wroclaw, Poland) and from American Type Culture Collection (ATCC). All experiments were conducted in triplicate.
# C. albicans ATCC 10231 = system: C. albicans ATCC 10231
# Description: as §1
# C. glabrata ATCC 15126 = system: C. glabrata ATCC 15126
# Description: as §1
# E. coli ATCC 23506 = system: E. coli ATCC 23506
# Description: as §1
# E. coli ATCC 25922 = system: E. coli ATCC 25922
# Description: as §1
# E. faecalis PCM 2673 = system: E. faecalis PCM 2673
# Description: as §1
# [1] = system: K. pneumoniae ATCC 700603
# Description: as §1
# P. aeruginosa ATCC 9027 = system: P. aeruginosa ATCC 9027
# Description: as §1
# S. aureus ATCC 25923 = system: S. aureus ATCC 25923
# Description: as §1
# S. aureus ATCC 9144 = system: S. aureus ATCC 9144
# Description: as §1
# S. pneumoniae ATCC 49619 = system: S. pneumoniae ATCC 49619
# Description: as §1
# [2] = broth microdilution (CLSI), 2 × 10^3 CFU/mL in RPMI-1640, 0.5–256 µg/mL, 24 h at 37 °C, triplicate
# [3] = broth microdilution (CLSI), 5 × 10^5 CFU/mL in Mueller–Hinton Broth, 0.125–256 µg/mL, 18 h at 37 °C, triplicate
Substance,"MIC, A. niger ATCC 16404 (A. niger ATCC 16404; [2])","MIC, C. albicans ATCC 10231 (C. albicans ATCC 10231; [2])","MIC, C. glabrata ATCC 15126 (C. glabrata ATCC 15126; [2])","MIC, K. pneumoniae ATCC 700603 [1, 3]","MIC, A. niger ATCC 16404 (A. niger ATCC 16404; ATCC 16404, 24 h)","MIC, C. albicans ATCC 10231 (C. albicans ATCC 10231; ATCC 10231, 24 h)","MIC, C. glabrata ATCC 15126 (C. glabrata ATCC 15126; ATCC 15126, 24 h)","MIC, E. coli ATCC 23506 (E. coli ATCC 23506; ATCC 23506, 18 h)","MIC, E. coli ATCC 25922 (E. coli ATCC 25922; ATCC 25922, 18 h)","MIC, E. faecalis PCM 2673 (E. faecalis PCM 2673; PCM 2673, 18 h)","MIC, K. pneumoniae ATCC 700603 ([1]; ATCC 700603, 18 h)","MIC, P. aeruginosa ATCC 9027 (P. aeruginosa ATCC 9027; ATCC 9027, 18 h)","MIC, S. aureus ATCC 25923 (S. aureus ATCC 25923; ATCC 25923, 18 h)","MIC, S. aureus ATCC 9144 (S. aureus ATCC 9144; ATCC 9144, 18 h)","MIC, S. pneumoniae ATCC 49619 (S. pneumoniae ATCC 49619; ATCC 49619, 18 h)",other results
KWKLFKKIGAVLKVL-NH2 [CAMEL],16 µg/mL,32 µg/mL,64 µg/mL,0.125 µg/mL,–,–,–,–,–,–,–,–,–,–,–,"MIC, E. coli ATCC 23506 (E. coli ATCC 23506; [3]): 1 µg/mL; MIC, E. coli ATCC 25922 (E. coli ATCC 25922; [3]): 2 µg/mL; MIC, E. faecalis PCM 2673 (E. faecalis PCM 2673; [3]): 8 µg/mL; MIC, P. aeruginosa ATCC 9027 (P. aeruginosa ATCC 9027; [3]): 2 µg/mL; MIC, S. aureus ATCC 25923 (S. aureus ATCC 25923; [3]): 4 µg/mL; MIC, S. aureus ATCC 9144 (S. aureus ATCC 9144; [3]): 4 µg/mL; MIC, S. pneumoniae ATCC 49619 (S. pneumoniae ATCC 49619; [3]): 0.5 µg/mL"
KKLIKVFAKGFKKAKKLFKGIG-NH2 [r-pexiganan],–,–,–,–,32 µg/mL,256 µg/mL,128 µg/mL,2 µg/mL,8 µg/mL,64 µg/mL,0.25 µg/mL,2 µg/mL,128 µg/mL,64 µg/mL,4 µg/mL,–
GLFDVIKKVASVIGGL-NH2 [citropin 1.1],–,–,–,–,64 µg/mL,128 µg/mL,128 µg/mL,32 µg/mL,32 µg/mL,32 µg/mL,16 µg/mL,128 µg/mL,16 µg/mL,16 µg/mL,32 µg/mL,–
LGGIVSAVKKIVDFLG-NH2 [r-citropin 1.1],–,–,–,–,256 µg/mL,128 µg/mL,256 µg/mL,128 µg/mL,64 µg/mL,128 µg/mL,32 µg/mL,–,64 µg/mL,64 µg/mL,128 µg/mL,–
ILRWPWWPWRRK-NH2 [omiganan],64 µg/mL,128 µg/mL,128 µg/mL,8 µg/mL,–,–,–,32 µg/mL,16 µg/mL,16 µg/mL,–,16 µg/mL,16 µg/mL,16 µg/mL,8 µg/mL,–
